In US9421197B2, “Methods of generating hyper INOS expressing cells and uses thereof” (CASE WESTERN RESERVE UNIVERSITY, priority 2010, dated 2016):

Assays:
excisional wounds = test: inflammatory wound model: wound healing curves; format: in vivo, mice; conditions: for day by which wounds healed: IL6−/− mice, inflammatory wound treatment, agent given i.p.
peritoneal macrophages = test: thioglycollate-induced peritonitis, peritoneal macrophages analyzed ex vivo by RT-PCR; conditions: IL6−/− mice treated in vivo
Description: For RT-PCR analysis, RNA was isolated using Trizol (Invitrogen) following the manufacturer's instructions, and was reverse-transcribed and quantified using Applied Biosystems TaqMan® RNA-to-CT™ 1-Step Kit, TaqMan® Gene Expression Assays for 18 s RNA, iNOS II, […], and IL-1β, and Step-One™ System. Cycle time, temperature, and number were based on Applied Biosystems recommendations.
Mice were injected i.p. with 2 ml of thioglycollate and sacrificed 24 hours later mice by cervical dislocation. Lavage was performed by infusing 5 ml of […] DPBS into the peritoneal cavity. The fluid sample is recovered by aspirating the liquid with a syringe. 80%±21% of instilled fluid volume is recovered. Macrophages were harvested following centrifugation of the […].

iNOS and TNF-α mRNA = test: inflammatory wound model: iNOS and TNF-α expression in skin; format: in vivo; conditions: IL6−/− mice, combined wounding, UVB and topical rosiglitazone, 24 hours
Description: Cycle time, temperature, and number were based on Applied Biosystems recommendations. Skin was wounded with some modifications. Mice were treated with 3-6 mm excisional wounds, one midline and two on each side of the midline. […] Wounds were measured and treated with topical rosiglitazone solution daily until healed (loss of serum crust and reepithelialization). Lung Treatment and Preparation […] All other reagents were purchased from sigma.

[1] = therapeutic doses; FDA alert May 21, 2007; cited from earlier work
NF-κB p65 and STAT3 = test: Western blot of nuclear NF-κB p65 and STAT3 in thioglycollate-elicited macrophages; format: cell-based, mice; conditions: reconstitution of IL6−/− macrophages
Description: Mice were injected i.p. with 2 ml of thioglycollate and sacrificed 24 hours later mice by cervical dislocation. Lavage was performed by infusing 5 ml of 40 C DPBS into the peritoneal cavity. The fluid sample is recovered by aspirating the liquid with a syringe. 80%±21% of instilled fluid volume is recovered. Macrophages were harvested following centrifugation of the BAL fluid.
NE-PER kit (Thermo Scientific) was used to extract nuclear and cytoplasmic protein from peritoneal macrophages. Protein samples were prepared under reduced conditions and western blot analysis was performed using a standard protocol (Invitrogen). Stat3 (79D7) Rabbit mAb, NF— xB p65, β-actin (13E5) Rabbit mAb (Cell Signaling Technology, Danvers, Mass.) were used for western blot evaluation. Densiometry analyzed by Biorad VersaDoc imaging system.

CC(=N)NCc1cccc(CN)c1 [1400 W]
day by which wounds healed (excisional wounds): 14 days

O=C(Nc1ccccc1)c1cc([N+](=O)[O-])ccc1Cl [GW9662]
iNOS expression (peritoneal macrophages): No significant increase

CN(CCOc1ccc(CC2SC(=O)NC2=O)cc1)c1ccccn1 (centres unmarked) [rosiglitazone]
increase in TNF-α mRNA expression (iNOS and TNF-α mRNA): 13 fold
increase in iNOS mRNA expression (iNOS and TNF-α mRNA): 20 fold
delay of wound closure (excisional wounds; IL6−/− mice compared to wildtype, inflammatory wound protocol): 8 days
risk of heart attack [1]: substantially increased risk

rIL-6: recombinant IL-6 (R&D Systems)
STAT3 and NF-kB levels (NF-κB p65 and STAT3): restores STAT3 and NF-kB levels similar to wildtype conditions
day by which wounds healed (excisional wounds): 11 days
